According to patent publication US5496849A, “Sulfonic acid derivative and its pharmaceutical application” (Toray Industries, Inc., priority 1992, dated 1996):
pIC50: −log10 of the molar value.

Legend:
[1] = test system: vasoconstriction of rat thoracic aorta induced by U-46619; test: Vasoconstriction inhibitory action (U-46619-induced constriction of thoracic aorta spiral specimens); parameters: species or system long Evans rats; settings: 10 min, pH 7.4, minimum concentration at which inhibition rate was 50% or more, 10 ng/ml U-46619, drug applied 10 minutes, 37° C., read-out: Vasoconstriction Inhibitory Action MIC
Description: Male and female long Evans rats having body weights of 150-200 g were used in this example. After sacrificing the animals by decapitation, the thoracic aorta was removed, and the outer membrane was peeled off to obtain I2 spiral specimens roughly 2 cm in length. Blood vessel specimens were warmed to 37° C. and preserved in a Magnus tube containing 10 ml of a nutrient solution aerated with 95% oxygen+5% carbon dioxide gas. The nutrient solution contained 118.3 mmol of NaCl, 4.7 mmol of KCl, […] of CaCl, 1.2 mmol of MgSO4, 1.2 mmol of KH2 PO4, 25 mmol of NaCHO3, 11.1 mmol of D-glucose, 0.03 mmol of EDTA along with 1 μg/ml each of atropin, phentolamine, mepiramine, cyproheptadine, propranolol and indometacin, and was adjusted to a pH of 7.4. Vasoconstriction was measured using an isometric transducer (Harward UF-1 Transducer and Sekonic SS-250F Graph recorder). An equilibration time of 3 hours was provided after the blood vessels were installed on the Magnus device, and fresh nutrient solution was replaced every 30 minutes during that time. […] of U-46619, having TXA2 action (to reach roughly 75% of maximum constriction), was applied for 30 minutes to constrict the vessels. The maximum stable constriction during this time was taken to be the control constriction (C1). Next, the blood vessels were washed several times with nutrient solution to remove the drug. After allowing a recovery period of 30 minutes, the test drugs were applied at various concentrations for 10 minutes followed by again constricting the vessels by applying 10 ng/ml of U-46619 for 30 minutes. The maximum stable constriction during this time was taken to be the constriction of the test drugs (C2). The inhibition rates of vasoconstriction induced by the drugs and U-46619 were determined according to the following formula, and the minimum concentration at which the inhibition rate was 50% or more was determined as the minimum inhibitory concentration (MIC).
((C1-C2)/C1)×100=Inhibition rate (%)

[2] = test system: platelet aggregation induced by U-46619 in human platelet-rich plasma (PRP); test: Platelet aggregation inhibitory action (U-46619-induced, human platelet-rich plasma); format: cell-based; settings: compounds added 1 minute before U-46619, turbidity
Description: Human whole blood drawn from the median cubital vein was centrifuged for 10 minutes at 800 rpm, and the upper portion was collected as platelet-rich plasma (PRP). […] The size of the aggregates were measured with a platelet aggregate measuring instrument (Hematracer 1, Nikko Bioscience) as the change in turbidity. The compounds were added 1 minute before addition of U-46619, and the concentration which inhibits aggregation by 50% was calculated as the IC50 value.

[3] = biological target: T1, Thromboxane A2 Receptor (Oryctolagus cuniculus, UniProt Q6WQI8); test: Receptor binding experiment: Thromboxane A2 Receptor Binding Test ([3H]SQ29548, washed platelets); parameters: species or system New Zealand White rabbits; settings: rabbit washed platelets; [3H]SQ29548 3 nM; 60 minutes at 25° C.; read-out: Binding Inhibitory Action IC50 (converted)
T1 sequence (Q6WQI8 1-233): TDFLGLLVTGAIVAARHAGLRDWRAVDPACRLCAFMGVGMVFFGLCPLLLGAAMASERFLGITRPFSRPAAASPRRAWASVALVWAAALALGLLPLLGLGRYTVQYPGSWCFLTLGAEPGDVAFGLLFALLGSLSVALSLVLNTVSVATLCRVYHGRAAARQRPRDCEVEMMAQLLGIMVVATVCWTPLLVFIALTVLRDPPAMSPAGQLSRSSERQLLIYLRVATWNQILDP
Description: Whole blood from New Zealand White rabbits was collected into a container containing ACD solution (1.175 g of sodium citrate, 0.685 g of citric acid, and 1 g of dextrose dissolved in 50 ml of distilled water) followed by centrifuging at room temperature for 10 minutes at 180 ×g to obtain platelet-rich plasma. Moreover, this platelet-rich plasma was further centrifuged at room temperature and 2800 ×g to result in sedimentation of the platelets. The platelets were resuspended in 50 mM Tris hydrochloric acid buffer solution (pH 7.2, containing […]) and again centrifuged at 4° C. for 15 minutes at 2800 ×g. This procedure was repeated twice to prepare the washed platelets, and adjusted to a final concentration of 10 mg/ml (wet weight). Tritium-labelled SQ29548 ([3H]SQ29548) was used for the TXA2 ligand. In an antagonism experiment, 20 μl of [3H]SQ29548 at a final concentration of 3 nM were added to 500 μl of a 10 mg/ml platelet suspension, together with adding 2.6 μl of the test drug dissolved in a suitable buffer. After incubating for 60 minutes at 25° C., the mixture was filtered over a glass filter using the Celherbster method, the filter was washed with 50 mM Tris hydrochloric acid buffer solution (3 ×4 ml), and radioactivity was measured with a scintillation counter to determine the amount of [3H]SQ29548 bound to the platelets. In addition, in a saturation test, 20 μl of [3H]SQ29548 were added to a final concentration of 0.1-50 nM followed by the addition of 2.6 μl of BM13505 at a final concentration of 1 μM in order to examine non-specific binding and carry out a binding experiment. The concentration of the test drug which inhibited binding of [3H]SQ29548 by 50% was determined as the IC50 value.

Structure (SMILES) | minimal effective concentration [1] [µg/mL] | pIC50 [2] | IC50 [3] [nM]
O=C(O)c1cccc2c1O[C@H]1C[C@@H](O)[C@H](NS(=O)(=O)c3ccccc3)[C@@H]21 (racemic) [(39), (1RS, 2RS, 3aSR, 8bRS)-1-benzenesulfonamido-2-hydroxy-2,3,3a,8b-tetrahydro-1H-cyclopenta[b]benzofuran-5-carboxylic acid] | 0.25 |  | 
O=C(O)Cc1cccc2c1O[C@H]1C[C@@H](O)[C@H](NS(=O)(=O)c3ccccc3)[C@@H]21 (racemic) [(41), (1RS, 2RS, 3aSR, 8bRS)-1-benzenesulfonamido-2-hydroxy-2,3,3a,8b-tetrahydro-1H-cyclopenta[b]benzofuran-5-acetic acid] | 0.25 | 5.77 | 2080
O=C(O)CCc1cccc2c1O[C@H]1C[C@@H](O)[C@H](NS(=O)(=O)c3ccccc3)[C@@H]21 (racemic) [(43), (1RS, 2RS, 3aSR, 8bRS)-1-benzenesulfonamido-2-hydroxy-2,3,3a,8b-tetrahydro-1H-cyclopenta[b]benzofuran-5-propionic acid] | 0.3 | 6.29 | 322
O=C(O)CCCc1cccc2c1O[C@H]1C[C@@H](O)[C@H](NS(=O)(=O)c3ccccc3)[C@@H]21 (racemic) [(45), (1RS, 2RS, 3aSR, 8bRS)-1-benzenesulfonamido-2-hydroxy-2,3,3a,8b-tetrahydro-1H-cyclopenta[b]benzofuran-5-butyric acid] |  | 5.37 | 4790
COC(=O)COc1cccc2c1O[C@H]1C[C@@H](O)[C@H](NS(=O)(=O)c3ccccc3)[C@@H]21 (racemic) [(46), (1RS, 2RS, 3aSR, 8bRS)-1-benzenesulfonamido-2-hydroxy-2,3,3a,8b-tetrahydro-1H-cyclopenta[b]benzofuran-5-yloxyacetic acid methyl ester] | 0.03 | 7.17 | 23.1
O=C(O)COc1cccc2c1O[C@H]1C[C@@H](O)[C@H](NS(=O)(=O)c3ccccc3)[C@@H]21 (racemic) [(47), (1RS, 2RS, 3aSR, 8bRS)-1-benzenesulfonamido-2-hydroxy-2,3,3a,8b-tetrahydro-1H-cyclopenta[b]benzofuran-5-yloxyacetic acid] | 0.025 | 7.74 | 7.4
COc1ccc(S(=O)(=O)N[C@@H]2[C@H]3c4cccc(OCC(=O)O)c4O[C@H]3C[C@H]2O)cc1 (racemic) [(51), (1RS, 2RS, 3aSR, 8bRS)-1-(p-methoxybenzenesulfonamido)-2-hydroxy-2,3,3a,8b-tetrahydro-1H-cyclopenta[b]benzofuran-5-yloxyacetic acid] | 0.1 | 7.17 | 27.6
O=C(O)COc1cccc2c1O[C@H]1C[C@@H](O)[C@H](NS(=O)(=O)c3ccc(F)cc3)[C@@H]21 (racemic) [(53), (1RS, 2RS, 3aSR, 8bRS)-1-(p-fluorobenzenesulfonamido)-2-hydroxy-2,3,3a,8b-tetrahydro-1H-cyclopenta[b]benzofuran-5-yloxyacetic acid] | 0.05 | 7.48 | 21
O=C(O)COc1cccc2c1O[C@H]1C[C@@H](O)[C@H](NS(=O)(=O)c3ccc(C(F)(F)F)cc3)[C@@H]21 (racemic) [(65), (1RS, 2RS, 3aSR, 8bRS)-1-(p-trifluoromethylbenzenesulfonamido)-2-hydroxy-2,3,3a,8b-tetrahydro-1H-cyclopenta [b]benzofuran-5-yloxyacetic acid] |  | 6.57 | 97.2
O=C(O)COc1cccc2c1O[C@H]1C[C@@H](O)[C@H](NS(=O)(=O)Cc3ccccc3)[C@@H]21 (racemic) [(74), (1RS, 2RS, 3aSR, 8bRS)-1-phenylmethanesulfonamido-2-hydroxy-2,3,3a,8b-tetrahydro-1H-cyclopenta[b]benzofuran-5-yloxyacetic acid] |  | 5.28 | 858
O=C(O)COc1cccc2c1O[C@H]1C[C@@H](O)[C@H](NS(=O)(=O)CCc3ccccc3)[C@@H]21 (racemic) [(76), (1RS, 2RS, 3aSR, 8bRS)-1-(2-phenylethanesulfonamido)-2-hydroxy-2,3,3a,8b-tetrahydro-1H-cyclopenta[b]benzofuran-5-yloxyacetic acid] |  | 6.26 | 122
O=C(O)COc1cccc2c1O[C@H]1C[C@@H](O)[C@H](NS(=O)(=O)c3ccc4ccccc4c3)[C@@H]21 (racemic) [(78), (1RS, 2RS, 3aSR, 8bRS)-1-(2-naphthalenesulfonamido)-2-hydroxy-2,3,3a,8b-tetrahydro-1H-cyclopenta[b]benzofuran-5-yloxyacetic acid] |  | 7.29 | 2.09
CCCCS(=O)(=O)N[C@@H]1[C@H]2c3cccc(OCC(=O)O)c3O[C@H]2C[C@H]1O (racemic) [(82), (1RS, 2RS, 3aSR, 8bRS)-1-butanesulfonamido-2-hydroxy-2,3,3a,8b-tetrahydro-1H-cyclopenta[b]benzofuran-5-yloxyacetic acid] |  | 6.00 | 1220
CCCCCCCCS(=O)(=O)N[C@@H]1[C@H]2c3cccc(OCC(=O)O)c3O[C@H]2C[C@H]1O (racemic) [(84), (1RS, 2RS, 3aSR, 8bRS)-1-octanesulfonamido-2-hydroxy-2,3,3a,8b-tetrahydro-1H-cyclopenta[b]benzofuran-5-yloxyacetic acid] |  | 5.14 | 1220
COC(=O)COc1cccc2c1O[C@H]1C[C@@H](O)[C@H](CNS(=O)(=O)c3ccccc3)[C@@H]21 (racemic) [(96), (1SR, 2RS, 3aSR, 8bSR)-1-((benzenesulfonamido)methyl)-2-hydroxy-2,3,3a,8b-tetrahydro-1H-cyclopenta[b]benzofuran-5-yloxyacetic acid methyl ester] |  | 6.17 | 415
Cc1ccc(S(=O)(=O)O[C@H]2CC[C@@H]3Oc4c(OCC(=O)O)cccc4[C@@H]32)cc1 (racemic) [(123), (1SR, 3aSR, 8bSR)-1-((p-tolyl)sulfonyloxy)-2,3,3a,8b-tetrahydro-1H-cyclopenta[b]benzofuran-5-yloxyacetic acid] |  | 7.03 | 
O=C(O)COc1cccc2c1O[C@H]1CC[C@H](OS(=O)(=O)c3ccc(Cl)cc3)[C@@H]21 (racemic) [(125), (1SR, 3aSR, 8bSR)-1-((p-chlorophenyl)sulfonyloxy)-2,3,3a,8b-tetrahydro-1H-cyclopenta[b]benzofuran-5-yloxyacetic acid] |  | 7.03 | 
O=C(O)COc1cccc2c1O[C@H]1CC[C@H](OS(=O)(=O)c3ccc(F)cc3)[C@@H]21 (racemic) [(127), (1SR, 3aSR, 8bSR)-1-((p-fluorophenyl)sulfonyloxy)-2,3,3a,8b-tetrahydro-1H-cyclopenta[b]benzofuran-5-yloxyacetic acid] |  | 7.00 | 
